One data set has as its system MCF-7 cells. The experiment in a line: Antiproliferative assay against MCF-7 (MTT, 72 h). Format: cell-based, Human. Conditions: for IC50: Homo sapiens, MCF7, MCF-7 cells, 72 h, MTT; for cytotoxicity against MCF-7 cells, in words: compared with the parent compound. The procedure: Human breast cancer cells (MCF-7) purchased from ATCC were seeded at 2 × 10^3 cells/well on a 96-well black flat-bottom plate and were cultured in high-glucose DMEM (Dulbecco’s modified Eagle medium) supplemented with 10% fetal bovine serum and 1% penicillin/streptomycin. The culture was incubated at 37 °C, 5% CO2 for 24 h. After the incubation period, the test compounds were added into the cell plate at serially diluted concentrations (20, 2, 0.2, 0.02, 0.002, and 0.0002 μM), and the culture was incubated for 72 h at 37 °C, 5% CO2. After the 72 h incubation, the cultured media containing compounds were removed, and the serum-free media containing MTT were added to the same well with additional incubation for 3 h at 37 °C, 5% CO2. After 3 h incubation, the serum-free media containing MTT were removed, and DMSO was added into the same well; the resulting solution was measured for its absorbance at 570 nm using a Multimode Microplate Reader (ENVISION) (PerkinElmer, USA). The IC50 value was calculated using GraphPad. Doxorubicin at 10 µM was used as a positive control in this assay.

Data set [1] concerns P. falciparum 3D7. The experiment in a line: Antimalarial assay against P. falciparum 3D7 (48 h growth, DNA fluorescent dye). Conditions: for IC50: Plasmodium falciparum. The class given is cell-based, Plasmodium falciparum. The procedure: Plasmodium falciparum strain 3D7 was cultured in complete medium (RPMI-1640 supplemented with 10% Albumax II) using O Rh^+ red blood cells in a microaerobic environment (5% CO2, 5% O2, 90% N2). IC50 assay plates were prepared using fourfold serially diluted test compounds in complete medium to a final volume of 50 μL. Then, 50 μL of parasite inoculum at 2% parasitemia ring stage and 1% hematocrit was added to each well and incubated for 48 h in a microaerobic environment. The assay was terminated by freezing at -20 °C before growth measurement. Parasite growth was measured adding 100 μL of lysis buffer supplemented with 1× DNA fluorescent dye (UltraPower, […], Tokyo, Japan), and the fluorescent signal was measured at 495/530 nm. The IC50 value was calculated by GraphPad Prism 9.0 software (La Jolla, California, USA) using the dose-response (four-parameter) function. Artemisinin at 1 μM and complete medium were used as positive and negative controls, respectively.

The subject of data set [2] is P. falciparum 3D7. Details: method as in doi:10.3390/M1358. Conditions: earlier report of the group; read-out: IC50 against P. falciparum 3D7; cited from earlier work.
In a further data set the test system is P. falciparum strains. Also noted: method as in PMID 24900261, PMID 26317851, PMID 28513586. Conditions: multiple stages of the malaria parasite; cited from earlier work.
The test system of data set [3] is human ovarian cancer (SKOV3). Also noted: method as in earlier work. The note with it: patent; cited from earlier work.
Setting [4] is: Table 3, blood-stage P. falciparum 3D7, various amine side chains, read-out: IC50 (µM) 3D7 ± SD.
Setting [5] is: P. falciparum 3D7, read-out: antimalarial activity against 3D7.
Setting [6] is: Table 2, blood-stage P. falciparum 3D7, various amino-acid linkers, read-out: IC50 (µM) 3D7 ± SD.

Where two headings read alike, the source gives them in different places.

`CC(C)[C@@H](C(=O)Nc1ccc(F)cc1)n1c(=O)[nH]c2ccccc2c1=O` [Compound 22]: the IC50 with MCF-7 cells was more than 20 µM; in the data set on P. falciparum 3D7 [1] (setting [4]) it was 0.36 ± 0.034 µM. For the same compound, the “antimalarial activity against 3D7, in words” value (“antimalarial activity” below) in the data set with P. falciparum 3D7 [1] (P. falciparum 3D7) is recorded as “good antimalarial activity”.
As to `COc1cccc(NC(=O)[C@H](CC(C)C)n2c(=O)[nH]c3ccccc3c2=O)c1` [Compound 7], the IC50 with P. falciparum 3D7 [1] (setting [5]) was 1 to 3 µM; in the data set on P. falciparum 3D7 [1] (setting [6]) it was 3.25 ± 0.21 µM.
On to `CC(C)[C@@H](C(=O)Nc1cccc(Cl)c1)n1c(=O)[nH]c2ccccc2c1=O` [Compound 24], for which the IC50 with MCF-7 cells is more than 20 µM; in the data set on P. falciparum 3D7 [1] (setting [4]), 0.022 ± 0.005 µM. The “antimalarial activity” value with P. falciparum 3D7 [1] (P. falciparum 3D7) is “excellent activity”.
For the compound `CC(C)[C@@H](C(=O)Nc1ccncc1)n1c(=O)[nH]c2ccccc2c1=O` [Compound 20], the IC50 in the data set on MCF-7 cells is more than 20 µM; in the data set with P. falciparum 3D7 [1] (setting [4]) it was 1.41 ± 0.115 µM. In addition, the “antimalarial activity” value with P. falciparum 3D7 [1] (P. falciparum 3D7) is “decrease in antimalarial activity”.
Regarding `COc1cccc(NC(=O)[C@H](C(C)C)n2c(=O)[nH]c3ccccc3c2=O)c1` [Compound 2], the IC50 in the data set on P. falciparum 3D7 [2] is approximately 200 nM; with MCF-7 cells it was 17.5 µM; in the data set with P. falciparum 3D7 [1] (setting [6]), 0.219 ± 0.024 µM.
With `CC(C)[C@@H](C(=O)Nc1ccccc1)n1c(=O)[nH]c2ccccc2c1=O` [Compound 18], the figures for the IC50 with MCF-7 cells and in the data set on P. falciparum 3D7 [1] (setting [4]) were more than 20 µM and 0.607 ± 0.03 µM, respectively. In the data set on P. falciparum 3D7 [1] (P. falciparum 3D7), the “antimalarial activity” value is reported as “dramatic loss in the antimalarial activity”.
For the compound `COc1cccc(NCCn2c(=O)[nH]c3ccccc3c2=O)c1` [Compound 4], in the data set on P. falciparum 3D7 [1] (setting [6]), the IC50 is more than 10 µM.
For `COc1ccccc1CNC(=O)CCn1c(=O)[nH]c2ccsc2c1=O` [MMV019066], in the data set on P. falciparum strains, the “parasite growth inhibitory activity” value is reported as less than 1 µM.
Take `COc1cccc(NC(=O)[C@H](C)n2c(=O)[nH]c3ccccc3c2=O)c1` [Compound 6]: the IC50 in the data set with P. falciparum 3D7 [1] (setting [6]) was more than 10 µM.
On to `CC(C)[C@@H](C(=O)Nc1ccc(Cl)cc1)n1c(=O)[nH]c2ccccc2c1=O` [Compound 25], for which the IC50 was found to be 10.5 µM in the data set with MCF-7 cells and 0.711 ± 0.038 µM in the data set with P. falciparum 3D7 [1] (setting [4]). The “antimalarial activity” value in the data set on P. falciparum 3D7 [1] (P. falciparum 3D7) was “good antimalarial activity”.
With `CCC(C(=O)Nc1cccc(OC)c1)n1c(=O)[nH]c2ccccc2c1=O` (stereo not drawn) [Compound 8], in the data set on P. falciparum 3D7 [1] (P. falciparum 3D7), the “antimalarial activity” value is listed as “potent sub-micromolar activity”. The IC50 with P. falciparum 3D7 [1] (setting [6]) worked out at 0.586 ± 0.032 µM.
On to `COc1cccc(NC(=O)Cn2c(=O)[nH]c3ccccc3c2=O)c1` [Compound 5], for which the IC50 in the data set on P. falciparum 3D7 [1] (setting [6]) is more than 10 µM.
For `CCC[C@@H](C(=O)Nc1cccc(OC)c1)n1c(=O)[nH]c2ccccc2c1=O` [Compound 9], the IC50 is 1 to 3 µM in the data set with P. falciparum 3D7 [1] (setting [5]) and 1.11 ± 0.1 µM in the data set with P. falciparum 3D7 [1] (setting [6]).
As to `CC(C)[C@@H](C(=O)Nc1cccnc1)n1c(=O)[nH]c2ccccc2c1=O` [Compound 19], the IC50 was more than 20 µM with MCF-7 cells and 2.89 ± 0.401 µM in the data set with P. falciparum 3D7 [1] (setting [4]). Moreover, the “antimalarial activity” value with P. falciparum 3D7 [1] (P. falciparum 3D7) is “decrease in antimalarial activity”.
Turning to `CC(C)[C@@H](C(=O)Nc1ccc(Cl)c(Cl)c1)n1c(=O)[nH]c2ccccc2c1=O` [Compound 26], the IC50 in the data set with MCF-7 cells is more than 20 µM; in the data set on P. falciparum 3D7 [1] (setting [4]) it was 0.406 ± 0.034 µM. The “cytotoxicity against MCF-7 cells, in words” value with MCF-7 cells is reported as “slightly higher cytotoxicity”. Also, the “antimalarial activity” value in the data set on P. falciparum 3D7 [1] (P. falciparum 3D7) is recorded as “less potent antimalarial”.
Regarding `COc1ccccc1CNC(=O)CCn1c(=O)[nH]c2ccccc2c1=O` [MMV665916], the “parasite growth inhibitory activity” value with P. falciparum strains is on record as less than 1 µM.
For `COc1ccc(NC(=O)[C@H](C(C)C)n2c(=O)[nH]c3ccccc3c2=O)cc1` [Compound 29], the IC50 in the data set on MCF-7 cells is more than 20 µM; with P. falciparum 3D7 [1] (setting [4]), more than 10 µM. Further, the “antimalarial activity” value in the data set with P. falciparum 3D7 [1] (P. falciparum 3D7) is “dramatic loss in the antimalarial activity”.
Taken in the same sequence, the figures for `CC(C)[C@@H](C(=O)NCc1ccccc1)n1c(=O)[nH]c2ccccc2c1=O` [Compound 28] were more than 20 µM, more than 10 µM and “dramatic loss in the antimalarial activity”.
As to `CCOC(=O)c1sc(NC(=O)[C@H](C(C)C)n2c(=O)[nH]c3ccccc3c2=O)nc1OC` [Compound 3], the “cytotoxicity against SKOV3, in words” value in data set [3] is recorded as “highly potent cytotoxicity”.
In the case of `CC(C)[C@@H](C(=O)Nc1ccc(F)c(F)c1)n1c(=O)[nH]c2ccccc2c1=O` [Compound 23], in the data set with MCF-7 cells, the IC50 was determined as 9.74 µM and the “cytotoxicity against MCF-7 cells, in words” value is given as “slightly higher cytotoxicity”. Further, the IC50 in the data set with P. falciparum 3D7 [1] (setting [4]) came to 0.038 ± 0.009 µM.
On to `CC(C)[C@@H](C(=O)Nc1cccc(F)c1)n1c(=O)[nH]c2ccccc2c1=O` [Compound 21], for which the IC50 in the data set on MCF-7 cells was more than 20 µM; in the data set on P. falciparum 3D7 [1] (setting [4]) it was 0.036 ± 0.005 µM. Moreover, the “antimalarial activity” value with P. falciparum 3D7 [1] (P. falciparum 3D7) was “excellent activity”.
Take `CC(C)[C@@H](C(=O)Nc1ccc(F)c(Cl)c1)n1c(=O)[nH]c2ccccc2c1=O` [Compound 27]: the figures for the IC50 with MCF-7 cells and in the data set on P. falciparum 3D7 [1] (setting [4]) were more than 20 µM and 0.059 ± 0.012 µM, respectively.
